Reference: patent publication US11655235B2, “Pyrrolidine and piperidine compounds” (YUHAN CORPORATION, priority 2019, dated 2023)

Experiments:
Format in all cases: biochemical
Recombinant human FAP = target: T1, Recombinant human FAP (Homo sapiens, UniProt Q12884); assay: FAP inhibition, fluorogenic substrate Z-Gly-Pro-AMC; conditions: 25° C., Z-Gly-Pro-AMC substrate
T1 construct: purchased R&D systems
T1 sequence (Q12884 1-760): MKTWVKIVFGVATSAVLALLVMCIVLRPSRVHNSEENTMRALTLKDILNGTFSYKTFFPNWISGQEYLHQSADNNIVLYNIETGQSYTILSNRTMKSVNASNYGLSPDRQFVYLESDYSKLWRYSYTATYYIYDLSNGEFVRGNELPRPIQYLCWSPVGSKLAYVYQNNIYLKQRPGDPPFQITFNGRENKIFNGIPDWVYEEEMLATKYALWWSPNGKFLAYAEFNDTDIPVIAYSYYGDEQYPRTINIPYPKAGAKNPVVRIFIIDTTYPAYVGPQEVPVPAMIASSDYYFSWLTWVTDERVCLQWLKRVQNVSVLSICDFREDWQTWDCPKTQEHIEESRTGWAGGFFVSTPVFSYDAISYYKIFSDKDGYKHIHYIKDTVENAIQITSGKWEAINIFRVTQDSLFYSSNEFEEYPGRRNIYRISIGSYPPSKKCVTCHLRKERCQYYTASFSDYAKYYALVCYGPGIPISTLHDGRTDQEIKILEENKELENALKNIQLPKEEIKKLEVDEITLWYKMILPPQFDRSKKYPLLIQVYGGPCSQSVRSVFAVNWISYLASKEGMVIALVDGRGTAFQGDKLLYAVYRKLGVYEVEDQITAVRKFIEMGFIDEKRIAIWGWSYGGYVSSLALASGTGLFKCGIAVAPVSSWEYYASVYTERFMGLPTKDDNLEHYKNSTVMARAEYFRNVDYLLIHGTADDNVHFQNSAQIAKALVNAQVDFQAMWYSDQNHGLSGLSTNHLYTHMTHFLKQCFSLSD
Summary of the method: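 Recombinant human FAP, 10 ng per reaction, in 50 mM Tris pH 7.5 with 1 M NaCl and 1 mg/ml BSA at 25° C; substrate Z-Gly-Pro-AMC, ≤0.1% DMSO. AMC fluorescence read at ex 380/em 460 nm; % signal-rate decrease vs no-inhibitor control, 8-point curves fitted to a four-parameter logistic for IC50.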

recombinant human DPP8 = target: T2, recombinant human DPP8 (Homo sapiens, UniProt Q6V1X1); assay: DPP8 inhibition, fluorogenic substrate Z-Ala-Pro-AMC; conditions: 25° C., Z-Ala-Pro-AMC substrate
T2 construct: purchased PBS Bioscience
Summary of the method: (§1)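 Enzyme per reaction: 50 ng DPP9, 20 ng DPP8, 10 ng each DPP7 and PREP. Compounds were serially diluted (8 points, up to 0.5% DMSO) and incubated at 25 °C.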

recombinant human DPP9 = target: T3, recombinant human DPP9 (Homo sapiens, UniProt Q86TI2); assay: DPP9 inhibition, fluorogenic substrate H-Gly-Pro-AMC; conditions: 25° C., H-Gly-Pro-AMC substrate
T3 construct: purchased R&D Systems
Summary of the method: as §1

recombinant human DPP7 = target: T4, recombinant human DPP7 (Homo sapiens, UniProt Q9UHL4); assay: DPP7 inhibition, fluorogenic substrate Lys-Pro-AMC
T4 construct: purchased R&D Systems
Summary of the method: as §1

DPP4 = DPP4 (Homo sapiens, UniProt P27487); assay: DPP4 inhibition, fluorogenic substrate H-Gly-Pro-AMC; design: purchased R&D Systems; conditions: for IC50: 25° C., H-Gly-Pro-AMC substrate; for inhibition at 1 µM: read-out: hDPP4 inhibition % at 1 μM
recombinant human PREP = target: T5, recombinant human PREP (Homo sapiens, UniProt P48147); assay: PREP inhibition, fluorogenic substrate Z-Gly-Pro-AMC; conditions: Inhibitory Activity (IC50, nM) PREP, 25° C., Z-Gly-Pro-AMC substrate
T5 construct: purchased R&D System
T5 sequence (P48147 1-710): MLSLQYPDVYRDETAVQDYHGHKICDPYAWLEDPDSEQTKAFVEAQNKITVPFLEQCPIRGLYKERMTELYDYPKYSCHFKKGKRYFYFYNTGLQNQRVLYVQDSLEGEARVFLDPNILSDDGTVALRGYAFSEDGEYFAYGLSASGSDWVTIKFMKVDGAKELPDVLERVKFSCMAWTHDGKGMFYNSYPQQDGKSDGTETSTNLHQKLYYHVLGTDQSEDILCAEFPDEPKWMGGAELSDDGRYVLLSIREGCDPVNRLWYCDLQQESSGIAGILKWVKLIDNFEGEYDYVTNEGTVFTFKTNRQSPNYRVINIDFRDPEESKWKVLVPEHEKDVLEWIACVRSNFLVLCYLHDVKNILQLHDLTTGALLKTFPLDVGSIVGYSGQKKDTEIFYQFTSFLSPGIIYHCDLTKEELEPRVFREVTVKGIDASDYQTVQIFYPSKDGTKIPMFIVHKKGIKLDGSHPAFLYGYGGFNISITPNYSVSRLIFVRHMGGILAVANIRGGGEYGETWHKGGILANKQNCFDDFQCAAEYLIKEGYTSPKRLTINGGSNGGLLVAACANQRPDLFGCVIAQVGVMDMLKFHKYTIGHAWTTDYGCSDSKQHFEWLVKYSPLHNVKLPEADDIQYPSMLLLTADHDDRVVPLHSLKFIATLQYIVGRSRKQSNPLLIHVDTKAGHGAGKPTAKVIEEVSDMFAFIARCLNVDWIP
Summary of the method: as §1

DPP4, sequence (P27487 whole entry): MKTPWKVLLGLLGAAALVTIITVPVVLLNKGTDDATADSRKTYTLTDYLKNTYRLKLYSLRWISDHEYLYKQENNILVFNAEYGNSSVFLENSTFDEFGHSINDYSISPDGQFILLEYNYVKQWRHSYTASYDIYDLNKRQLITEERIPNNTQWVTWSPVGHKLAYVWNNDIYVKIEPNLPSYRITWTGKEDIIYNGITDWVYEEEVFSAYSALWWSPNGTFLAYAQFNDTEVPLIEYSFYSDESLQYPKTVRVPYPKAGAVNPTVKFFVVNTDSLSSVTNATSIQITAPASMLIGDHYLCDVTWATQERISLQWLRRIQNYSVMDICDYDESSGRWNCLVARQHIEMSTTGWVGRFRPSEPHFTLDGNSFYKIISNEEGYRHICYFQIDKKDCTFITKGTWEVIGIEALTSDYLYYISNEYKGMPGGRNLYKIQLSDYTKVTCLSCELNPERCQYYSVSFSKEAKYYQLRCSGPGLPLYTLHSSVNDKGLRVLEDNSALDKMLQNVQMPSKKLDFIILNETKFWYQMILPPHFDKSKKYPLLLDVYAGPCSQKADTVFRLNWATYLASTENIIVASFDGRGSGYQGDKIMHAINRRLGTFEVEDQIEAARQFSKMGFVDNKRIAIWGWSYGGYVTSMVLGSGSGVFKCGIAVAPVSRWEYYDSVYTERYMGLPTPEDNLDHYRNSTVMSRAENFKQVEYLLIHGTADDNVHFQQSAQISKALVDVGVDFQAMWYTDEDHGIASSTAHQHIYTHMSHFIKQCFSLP
T3 sequence (Q86TI2 whole entry): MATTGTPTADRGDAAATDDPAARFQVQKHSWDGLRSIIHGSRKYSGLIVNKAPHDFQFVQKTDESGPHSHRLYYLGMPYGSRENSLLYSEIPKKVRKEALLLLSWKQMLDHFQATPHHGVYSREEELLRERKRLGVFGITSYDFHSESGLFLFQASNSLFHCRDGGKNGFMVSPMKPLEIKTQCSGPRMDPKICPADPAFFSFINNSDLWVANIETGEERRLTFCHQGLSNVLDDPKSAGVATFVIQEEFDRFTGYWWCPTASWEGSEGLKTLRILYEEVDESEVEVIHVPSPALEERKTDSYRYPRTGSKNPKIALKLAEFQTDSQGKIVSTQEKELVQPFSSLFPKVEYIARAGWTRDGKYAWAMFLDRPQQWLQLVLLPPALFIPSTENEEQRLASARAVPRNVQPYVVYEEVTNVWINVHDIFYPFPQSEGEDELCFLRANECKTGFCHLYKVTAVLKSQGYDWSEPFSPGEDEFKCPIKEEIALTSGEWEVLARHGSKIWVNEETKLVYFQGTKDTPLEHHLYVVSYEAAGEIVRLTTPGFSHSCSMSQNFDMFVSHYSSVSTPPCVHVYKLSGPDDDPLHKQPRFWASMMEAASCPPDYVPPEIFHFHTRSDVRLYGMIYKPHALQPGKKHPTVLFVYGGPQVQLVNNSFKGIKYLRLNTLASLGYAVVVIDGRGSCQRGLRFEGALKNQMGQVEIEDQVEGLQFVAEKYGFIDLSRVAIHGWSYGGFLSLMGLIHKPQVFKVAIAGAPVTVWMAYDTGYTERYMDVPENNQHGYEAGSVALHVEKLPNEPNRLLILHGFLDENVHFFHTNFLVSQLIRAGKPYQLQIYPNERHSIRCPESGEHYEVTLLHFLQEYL
T2 sequence (Q6V1X1 whole entry): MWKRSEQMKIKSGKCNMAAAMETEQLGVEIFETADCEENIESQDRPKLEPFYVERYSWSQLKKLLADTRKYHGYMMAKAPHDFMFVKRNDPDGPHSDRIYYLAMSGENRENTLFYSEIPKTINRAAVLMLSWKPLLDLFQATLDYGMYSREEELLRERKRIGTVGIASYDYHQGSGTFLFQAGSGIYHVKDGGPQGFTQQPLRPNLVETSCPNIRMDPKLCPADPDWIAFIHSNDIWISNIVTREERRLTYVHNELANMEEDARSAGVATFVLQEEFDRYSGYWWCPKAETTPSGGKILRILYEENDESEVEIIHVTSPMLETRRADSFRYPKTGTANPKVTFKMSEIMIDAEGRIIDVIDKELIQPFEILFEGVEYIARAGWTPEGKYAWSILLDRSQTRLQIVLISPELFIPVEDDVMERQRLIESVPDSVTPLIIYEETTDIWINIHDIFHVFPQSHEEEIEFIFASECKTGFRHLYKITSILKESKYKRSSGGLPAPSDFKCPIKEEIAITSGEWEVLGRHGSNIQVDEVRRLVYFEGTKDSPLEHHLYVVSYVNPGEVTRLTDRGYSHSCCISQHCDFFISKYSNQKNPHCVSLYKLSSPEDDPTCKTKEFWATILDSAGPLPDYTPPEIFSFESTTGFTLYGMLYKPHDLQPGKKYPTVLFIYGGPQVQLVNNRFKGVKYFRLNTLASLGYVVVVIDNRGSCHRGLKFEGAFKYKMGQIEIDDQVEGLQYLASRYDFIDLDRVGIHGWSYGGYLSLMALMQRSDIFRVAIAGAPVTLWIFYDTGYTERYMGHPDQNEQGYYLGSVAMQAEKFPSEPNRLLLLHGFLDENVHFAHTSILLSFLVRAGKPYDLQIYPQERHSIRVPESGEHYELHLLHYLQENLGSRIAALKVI

Compound	IC50 (Recombinant human FAP) [µM]	IC50 (recombinant human DPP8) [µM]	IC50 (recombinant human DPP9) [µM]	IC50 (recombinant human DPP7) [µM]	IC50 (DPP4) [µM]	IC50 (recombinant human PREP) [nM]	hDPP4 inhibition % at 1 μM (DPP4)	inhibition at 1 µM (DPP4) [%]
COc1ccc2c(O[C@H]3CCN(CC(=O)N4CCC[C@H]4C#N)C3)ccnc2c1 [Example 100, (S)-1-(2-((S)-3-((7-methoxyquinolin-4-yl)oxy)pyrrolidin-1-yl)acetyl)pyrrolidine-2-carbonitrile]	0.0135	73.8	> 100	1.15	> 1	2490		
COc1ccc2nccc(O[C@H]3CCN(CC(=O)N4CC(F)(F)C[C@H]4C#N)C3)c2c1 [Example 103, (S)-4,4-difluoro-1-(2-((S)-3-((6-methoxyquinolin-4-yl)oxy)pyrrolidin-1-yl)acetyl)pyrrolidine-2-carbonitrile]	0.00068	7.68	4.75	0.174	> 1	5670		
N#C[C@@H]1CC(F)(F)CN1C(=O)CN1CC[C@H](Oc2cccc3cnccc23)C1 [Example 106, (S)-4,4-difluoro-1-(2-((S)-3-(isoquinolin-5-yloxy)pyrrolidin-1-yl)acetyl)pyrrolidine-2-carbonitrile]	0.00188	8.28	10.3	0.0416	> 1	4310		
N#C[C@@H]1CC(F)(F)CN1C(=O)CN1CC[C@H](Oc2cccc3[nH]c(=O)ccc23)C1 [Example 108, (S)-4,4-difluoro-1-(2-((S)-3-((2-oxo-1,2-dihydroquinolin-5-yl)oxy)pyrrolidin-1-yl)acetyl)pyrrolidine-2-carbonitrile]	0.00215	6.68	6.3	0.0076	> 1	3150		
N#C[C@@H]1CCCN1C(=O)CN1CCC(Nc2ccnc3ccccc23)CC1 [Example 111, (S)-1-(2-(4-(quinolin-4-ylamino)piperidin-1-yl)acetyl)pyrrolidine-2-carbonitrile]	0.00828	31.9	21.1	0.503		4170	No inhibition**	
N#C[C@@H]1CCCN1C(=O)CN1CCC(Oc2ccnc3ccccc23)CC1 [Example 118, (S)-1-(2-(4-(quinolin-4-yloxy)piperidin-1-yl)acetyl)pyrrolidine-2-carbonitrile]	0.00234	85.4	> 100	10.2		1040	No inhibition**	
N#C[C@@H]1CCCN1C(=O)CN1CCC(Oc2cccc3ncccc23)CC1 [Example 119, (S)-1-(2-(4-(quinolin-5-yloxy)piperidin-1-yl)acetyl)pyrrolidine-2-carbonitrile]	0.00145	60.4	> 100	2.35		3760	No inhibition**	
Cc1cnc2cccc(NC3CCN(CC(=O)N4CCC[C@H]4C#N)CC3)c2c1 [Example 121, (S)-1-(2-(4-((3-methylquinolin-5-yl)amino)piperidin-1-yl)acetyl)pyrrolidine-2-carbonitrile]	0.00184	48.1	46.9	1.74	> 10	73700		
Cc1ccc2ncccc2c1NC1CCN(CC(=O)N2CCC[C@H]2C#N)CC1 [Example 122, (S)-1-(2-(4-((6-methylquinolin-5-yl)amino)piperidin-1-yl)acetyl)pyrrolidine-2-carbonitrile]	0.445	> 100	> 100	> 100	> 10	23700		

Second part, the compound after the results:

IC50 (Recombinant human FAP) [µM]	IC50 (recombinant human DPP8) [µM]	IC50 (recombinant human DPP9) [µM]	IC50 (recombinant human DPP7) [µM]	IC50 (DPP4) [µM]	IC50 (recombinant human PREP) [nM]	hDPP4 inhibition % at 1 μM (DPP4)	inhibition at 1 µM (DPP4) [%]	Compound
0.00057	> 100	> 100	0.626	> 1	3020			COc1cc2nccc(O[C@H]3CCN(CC(=O)N4CCC[C@H]4C#N)C3)c2cc1OC [Example 101, (S)-1-(2-((S)-3-((6,7-dimethoxyquinolin-4-yl)oxy)pyrrolidin-1-yl)acetyl)pyrrolidine-2-carbonitrile]
0.00114	16.2	22.2	0.0834	> 1	3080			N#C[C@@H]1CC(F)(F)CN1C(=O)CN1CC[C@H](Oc2ccnc3c(C(F)(F)F)cccc23)C1 [Example 104, (S)-4,4-difluoro-1-(2-((S)-3-((8-(trifluoromethyl)quinolin-4-yl)oxy)pyrrolidin-1-yl)acetyl)pyrrolidine-2-carbonitrile]
0.00121	11.8	12.5	0.0635	> 1	5230			N#C[C@@H]1CC(F)(F)CN1C(=O)CN1CC[C@H](Oc2cccc3ncccc23)C1 [Example 105, (S)-4,4-difluoro-1-(2-((S)-3-(quinolin-5-yloxy)pyrrolidin-1-yl)acetyl)pyrrolidine-2-carbonitrile]
0.00367	9.89	13.5	0.0187	> 1	6500			N#C[C@@H]1CC(F)(F)CN1C(=O)CN1CC[C@H](Oc2ccnc3cc(Cl)ccc23)C1 [Example 107, (S)-1-(2-((S)-3-((7-chloroquinolin-4-yl)oxy)pyrrolidin-1-yl)acetyl)-4,4-difluoropyrrolidine-2-carbonitrile]
0.0018	2.17	4.43	0.0383	> 1	4140			N#C[C@@H]1CC(F)(F)CN1C(=O)CN1CC[C@H](Oc2ccc(Cl)c3cccnc23)C1 [Example 109, (S)-1-(2-((S)-3-((5-chloroquinolin-8-yl)oxy)pyrrolidin-1-yl)acetyl)-4,4-difluoropyrrolidine-2-carbonitrile]
0.00165	2.41	3.97	0.342		2930		20	N#C[C@@H]1C[C@H](F)CN1C(=O)CN1CCC(Nc2cccc3ncccc23)CC1 [Example 113, (2S,4S)-4-fluoro-1-(2-(4-(quinolin-5-ylamino)piperidin-1-yl)acetyl)pyrrolidine-2-carbonitrile]
0.00094	1.53	3.4	< 0.03		31000		15.7	N#C[C@@H]1CC(F)(F)CN1C(=O)CN1CCC(Nc2cccc3ncccc23)CC1 [Example 114, (S)-4,4-difluoro-1-(2-(4-(quinolin-5-ylamino)piperidin-1-yl)acetyl)pyrrolidine-2-carbonitrile]
0.00564	52.1	45.1	5.74		> 100000		1.4	N#C[C@@H]1C[C@@H]2C[C@@H]2N1C(=O)CN1CCC(Nc2cccc3ncccc23)CC1 [Example 115, (1S,3S,5S)-2-(2-(4-(quinolin-5-ylamino)piperidin-1-yl)acetyl)-2-azabicyclo[3.1.0]hexane-3-carbonitrile]
